Among the data in patent publication EP0070049A1, “Derivative of acetylsalicylic acid having an analgetic, antipyretic, antiphlogistic and bronchosecretolytic activity” (UNIONE CHIMICA MEDICAMENTI- DIFME-S.p.A., priority 1981, dated 1983) are LD50 values, retold here.

The data set can be described thus: Acute oral toxicity (DL50, Lichtfield et al). Also on record: species or system rats. The following applies: rat, in vivo. An excerpt:
La toxicité aiguë de l'acétylsalicylate de 2(o-méthoxy--phénoxy)éthanol a été évaluée en comparaison avec celle de l'acide acétylsalicylique et exprimée comme dose DL50 (la dose qui provoque la mort du 50% des animaux traités) en mg/kg de poids corporel des rats auxquels la substance a été administrée par voie orale. Les résultats de l'élaboration statistique suivant la méthode décrite par J.T.Lichtfield et al (J. Pharm. Exp. Ther., volume 96, page 99, 1949) donnent les suivantes valeurs de la dose toxique DLSO et, entre parenthèses, de son intervalle fiducial (valeurs minimale et maximale relevées): • acide acétylsalicylique 1400 (1207 1580) • acétylsalicylate de • 2(o-méthoxy-phénoxy)éthanol 2934 (2696 3098)

What is called LD50 is the dose at which mortality reaches 50%. A low value points to a more toxic substance. As to `COc1ccccc1OCCOC(=O)c1ccccc1OC(C)=O` [acétylsalicylate de 2(o-méthoxy-phénoxy)éthanol], the LD50 was 2930 mg/kg.
